105 molecules from PubChem BioAssay AID1996 can be followed below.

In brackets after ≈: the same amount, converted by molar mass. A value given as a limit tells only on which side of the number the result lay.

The conditions of this series: buffer; pH 7.4; 200.0 µM.
One may read the kinetic solubility as the concentration staying in solution when a stock, usually in DMSO, is diluted into the medium. `CCc1nnc(NC(=O)c2cc(Cl)ccn2)s1` displayed a kinetic solubility above 40.3 µg/mL. In the case of `CC(C)=CC(=O)Nc1cccc(S(=O)(=O)NC2=NCCCCC2)c1` it was above 52.4 µg/mL.

In turn, `CCCn1c(SCC(=O)Nc2ccc(F)c(Cl)c2)nc(O)cc1=O` gave a solubility (kinetic) above 55.8 µg/mL. To `CNC(=S)N(CCc1c(C)[nH]c2ccc(Cl)cc12)Cc1cccnc1` belongs 46.2 µg/mL (≈ 124 µM). To `CCCn1cnc2cc(NCc3cccs3)ccc21` belongs above 40.7 µg/mL; to `CC1(C)NC(=O)N(CC(=O)N2CCC(Cc3ccccc3)CC2)C1=O`, 50.1 µg/mL (≈ 146 µM); to `Cc1ccc(C(=O)NC2CCCCNC2=O)cc1C` (stereo not given), above 39.1 µg/mL. To `CCCCc1ccc(NC(=O)C(C)CC)cc1` (stereo not given) belongs 6.7 µg/mL (≈ 28.7 µM); to `CN(Cc1cccs1)C(=O)c1ccc(Cl)c(S(=O)(=O)N2CCCCCC2)c1`, 14.1 µg/mL (≈ 33 µM).

With `COc1ccc(C(CCO)NC(=O)c2cccs2)cc1OC` (stereo not given), the solubility (kinetic) was above 48.2 µg/mL.

In the case of `Cc1ccnc(NC(=O)c2cc(F)c(F)cc2Cl)n1`, the solubility (kinetic) was above 42.6 µg/mL. With `COc1ccc(NC(=O)C(=S)NC2CCCCC2)cc1`, the kinetic solubility is below 0.3 µg/mL. To `O=c1oc2ccccc2n1Cc1ccccc1` belongs 8.6 µg/mL (≈ 38.2 µM); to `Cc1ccc(CONC(=O)c2ccc(OC(F)F)cc2)cc1`, 9.5 µg/mL (≈ 30.9 µM). To `Cc1ccc(CCN2CC(C(=O)NC(C)C)CC2=O)cc1` (stereo not given) belongs above 43.3 µg/mL; to `O=C(Nc1ccc2c(c1)OCCO2)c1cccnc1Oc1ccc(Cl)cc1`, 5.5 µg/mL (≈ 14.4 µM).

In turn, `CC1c2ccccc2N(NC(=O)Cc2ccccc2)C1C` (stereo not given) had a solubility (kinetic) above 42.1 µg/mL.

For `CS(=O)(=O)N(CC(=O)NCc1cccnc1)C1CCCCC1`, the solubility (kinetic) was above 48.8 µg/mL. `Cc1ccc(S(=O)(=O)Nc2ccccc2C(=O)N2CCOCC2)cc1`: the solubility (kinetic) is above 54.1 µg/mL. In the case of `CCOC(=O)CNC(=O)C12CC3CC(C1)CC(c1ccc(C)cc1)(C3)C2` it was 3.9 µg/mL (≈ 11 µM). For the molecule `CCc1ccc(NC(=O)C2(C)Cc3ccccc3C(=O)O2)cc1` (stereo not given), the kinetic solubility is above 46.4 µg/mL. To `CC(=O)Nc1ccc(S(=O)(=O)N2C(C)CCCC2C)cc1` (stereo not given) belongs above 46.6 µg/mL.

The molecule `COc1ccc(-c2cc(-c3ccc(O)cc3)nc(N)c2C#N)cc1` registered a solubility (kinetic) of 0.8 µg/mL (≈ 2.52 µM). To `CC(=O)c1ccc(C(=O)N2CCCC(Nc3ccccc3)C2)s1` (stereo not given) belongs 41.2 µg/mL (≈ 125 µM).

Turning to `CC(C)CCC(C)NC(=O)Cc1ccc(S(=O)(=O)N2CCOCC2)s1` (stereo not given), the solubility (kinetic) turned out to be 47 µg/mL (≈ 121 µM).

`CC(=O)C(Cc1ccccc1)NC(=O)COC(=O)c1cccc(C)c1[N+](=O)[O-]` (stereo not given) returned a kinetic solubility above 57.7 µg/mL. To `COc1ccc(S(=O)(=O)N2CC(=O)Nc3ccccc32)cc1Cl` belongs above 52.9 µg/mL; to `Cc1sc2nc(CC(=O)N3CCCC3)[nH]c(=O)c2c1C`, above 43.7 µg/mL; to `CC(C)(C)N1CC(C(=O)Nc2ccc(S(N)(=O)=O)cc2)CC1=O` (stereo not given), above 50.9 µg/mL.

With `CC(CC(=O)Nc1nccs1)c1ccccc1` (stereo not given), the solubility (kinetic) was found to be 32.5 µg/mL (≈ 132 µM). Turning to `O=C(NCc1ccccc1Br)C1CCCO1` (stereo not given), the kinetic solubility is above 42.6 µg/mL.

In the case of `CC(=O)c1cccc(NC(=O)C(C)OC(=O)CCc2nc3ccccc3c(=O)[nH]2)c1` (stereo not given), the kinetic solubility was above 61.1 µg/mL. For `COc1cccc(C(=O)OCC(=O)NC(=O)NC2CCCC2)c1O`, the kinetic solubility is 38.5 µg/mL (≈ 114 µM). In the case of `CC(CC12CC3CC(CC(C3)C1)C2)NCc1ccccc1O.Cl` (stereo not given) it was 38.5 µg/mL; in that of `O=C1c2ccccc2C2(c3cc(C(F)(F)F)cc(C(F)(F)F)c3)NCCN12` (stereo not given), 55.9 µg/mL (≈ 145 µM). The molecule `O=C(NCCCO)C(=O)Nc1cc2c3c(c1)CCC(=O)N3CCC2` returned a solubility (kinetic) of 48.8 µg/mL (≈ 147 µM). In the case of `NC(=S)NNc1cccc2cccnc12`, the kinetic solubility is above 32.7 µg/mL. Molecule `O=C(CSCc1cccc(F)c1)NCc1ccccc1` had a solubility (kinetic) of 35.2 µg/mL (≈ 122 µM). To `COc1ccc(-c2noc(=O)n2Cc2ccc(C#N)cc2)cc1` belongs above 46.1 µg/mL.

Regarding `COc1ccc(NC(=O)CN(C)C(=O)c2ccccc2OC)cc1`, the kinetic solubility was above 49.3 µg/mL. For the molecule `COCC(=O)N(Cc1nc2sc(C)c(C)c2c(=O)[nH]1)C1CCCCC1`, the kinetic solubility was 47.4 µg/mL (≈ 130 µM). To `Cc1ccc(N2C(=O)C3CCCN3C2=S)cc1C` (stereo not given) belongs above 39.1 µg/mL; to `Cl.O=C(O)Cc1cnc[nH]1`, above 24.4 µg/mL. To `COc1cccc(CNC(=O)CC2Sc3ccccc3NC2=O)c1` (stereo not given) belongs 1.5 µg/mL (≈ 4.38 µM). To `Cc1ccccc1OC(C)C(=O)N1CCN(c2ccccn2)CC1` (stereo not given) belongs above 48.8 µg/mL; to `Cc1cc(C)cc(NC(=O)C2CCN(c3cnccn3)CC2)c1`, 13.7 µg/mL (≈ 44.1 µM).

Turning to `CC1(CCc2ccccc2)NC(=O)N(CC(=O)Nc2ccc(OC(F)F)cc2)C1=O` (stereo not given), the kinetic solubility came to 11.4 µg/mL (≈ 27.3 µM). In the case of `CNC(=O)Cn1c(C)cc(=O)c2cccc(C)c21` it was above 36.6 µg/mL; in that of `CCCCCCCn1c(C)nnc1-c1cnn(C)c1N`, above 41.5 µg/mL; in that of `CCOC(=O)c1cnc(Cc2ccccc2)[nH]c1=O`, 37.3 µg/mL (≈ 144 µM). To `Cc1ccc(S(=O)(=O)NC2=NCN(CC(=O)[O-])CN2)cc1.[Na+]` belongs above 50.1 µg/mL; to `Cc1ccc(C(C)NC(=S)NC2CCCCC2)cc1C` (stereo not given), 7.8 µg/mL (≈ 26.9 µM). To `O=C(NCCc1ccccn1)c1cc2ccccc2o1` belongs 37.7 µg/mL (≈ 142 µM). For `Cc1cc(C)c(NC(=O)CCCSc2nnc(N)s2)c(C)c1`, the kinetic solubility was above 50.5 µg/mL. To `O=[N+]([O-])c1ccc(NC(=S)N2CCc3ccccc32)cc1` belongs 3.9 µg/mL (≈ 13 µM); to `CC1CC(O)C(C)CN1` (stereo not given), above 19.4 µg/mL. In turn, `O=C(Nc1ccc2ccccc2n1)Nc1cccs1` registered a solubility (kinetic) below 0.2 µg/mL. To `CC(OC(=O)C1=COCCO1)C(=O)NC1(C#N)CCCCC1` (stereo not given) belongs 45.7 µg/mL (≈ 148 µM); to `COC(=O)CCN(C(=O)c1ccc(Cl)c([N+](=O)[O-])c1)c1ccccn1`, above 54.6 µg/mL; to `CCOc1ccccc1Nc1nc(-c2cccnc2)cs1`, 10.6 µg/mL (≈ 35.6 µM). In the case of `COc1ccc(C)cc1NC(=S)N1CCOCC1` it was above 40 µg/mL; in that of `Cc1ccc(S(=O)(=O)N2CC(C)N(S(C)(=O)=O)C2)cc1` (stereo not given), above 47.8 µg/mL; in that of `S=C(NCCc1ccccc1)Nc1ccc(N2CCCCC2)cc1`, 0.6 µg/mL (≈ 1.77 µM). In the case of `CCOC(=O)c1ccc(NC(=S)NCCCn2ccnc2)cc1` it was above 49.9 µg/mL; in that of `Cc1ccc(C2CC(=O)NC(SCC(N)=O)=C2C#N)s1` (stereo not given), above 46.1 µg/mL; in that of `C=CCSc1nc(C)c(CCCC)c(=O)[nH]1`, above 35.8 µg/mL. On to `O=C(COc1ccc([N+](=O)[O-])cc1Cl)N1CCc2ccccc21`, for which the kinetic solubility stood at 2.4 µg/mL (≈ 7.21 µM). To `Cc1cccc(C)c1NC(=O)CN1CCN(C(=O)c2ccc(OCc3cn4ccccc4n3)cc2)CC1` belongs above 74.6 µg/mL; to `CC1CN(C(=S)Nc2cccc([N+](=O)[O-])c2)CC(C)O1` (stereo not given), above 44.3 µg/mL. The molecule `Cn1c(=O)[nH]c2ncccc21` yielded a kinetic solubility above 22.4 µg/mL. To `CS(=O)(=O)N1Cc2ccccc2CC1C(=O)OCC(=O)NCCc1ccc(S(N)(=O)=O)cc1` (stereo not given) belongs 59.1 µg/mL (≈ 119 µM); to `CN(C)c1ccc(/C=N/OC(=O)Nc2ccccc2)cc1`, 11 µg/mL (≈ 38.8 µM); to `COC(=O)COc1cccc2c(=O)n(CC(=O)N3CCC(C)CC3)ccc12`, above 55.9 µg/mL. Take `COc1nc(N(C)C)nc(N(C)c2cc(Cl)cc(Cl)c2)n1`: the kinetic solubility is 0.4 µg/mL (≈ 1.22 µM). In the case of `COc1cc(C(C)=O)ccc1OC(=O)N(C)c1ccccc1` it was 44.2 µg/mL (≈ 148 µM). In the case of `Fc1ccc(OCCCn2ccnc2)cc1` it was 23.3 µg/mL (≈ 106 µM); in that of `C#CCn1c(CCNC(=O)c2ccco2)nc2ccccc21`, above 44 µg/mL. To `CN(C)c1nc(N(C)C)nc(N(C#N)CCCl)n1` belongs 19.2 µg/mL (≈ 71.2 µM); to `Cc1ccccc1C(=O)O/N=C(\N)Cc1cccs1`, above 41.2 µg/mL; to `O=C(NC1CCCCCC1)c1ccc[nH]c1=S`, above 37.6 µg/mL. In the case of `CCCN1C(=O)CC(=O)N=C1SCC(=O)Nc1ccccc1F`, the solubility (kinetic) is above 50.6 µg/mL. For `COc1nc(N)nc(NC(=O)c2cccs2)c1N=O`, the solubility (kinetic) was 25.2 µg/mL (≈ 90.2 µM).

With `O=S1(=O)CC(O)C(N(CCO)C(=S)Nc2ccccc2)C1` (stereo not given), the solubility (kinetic) amounted to 46.2 µg/mL (≈ 140 µM). In the case of `O=c1cc(NC2CCCCC2)[nH]c(=O)[nH]1` it was 13.1 µg/mL (≈ 62.6 µM).

`COC(=O)c1sccc1NC(=O)Nc1cc(OC)ccc1OC` had a kinetic solubility of 10.3 µg/mL (≈ 30.6 µM). In the case of `Cc1cc(C)c2oc(=O)cc(CN3CCC(C)CC3)c2c1` it was 4.1 µg/mL (≈ 14.4 µM); in that of `COc1ccc(C2Nc3ccccc3C(=O)N2Cc2ccccc2)cc1OC` (stereo not given), below 0.4 µg/mL.

`c1ccc(CNc2ncnc3sccc23)cc1`: the kinetic solubility turned out to be 31.9 µg/mL (≈ 132 µM). To `Cn1cc(S(=O)(=O)c2ccccc2)n(C)c1=O` belongs 31 µg/mL (≈ 123 µM). In the case of `O=C(Cc1cccc(Cl)c1)Nc1ccc(Br)cc1` it was 2.9 µg/mL (≈ 8.93 µM); in that of `COc1ccc(/C(N)=N/OC(=O)c2cccs2)cc1`, 35.9 µg/mL (≈ 130 µM). To `O=C(/C(=C(\O)c1ccccc1)c1nc2ccccc2[nH]1)c1ccccc1` belongs below 0.4 µg/mL; to `O=C(O)CCn1c(-c2ccccc2)cc2ccccc21`, 35.7 µg/mL (≈ 135 µM). Turning to `CC(C)CN1CCN(Cc2cccc3cccnc23)CC1CCO` (stereo not given), the solubility (kinetic) came out at 37.1 µg/mL (≈ 113 µM).

Take `Cc1ccc2[nH]c3c(Cl)ncnc3c2c1`: the solubility (kinetic) amounted to 13.3 µg/mL (≈ 61.1 µM). To `Cc1ccc(NC(=O)[C@@H]2CCCN2S(=O)(=O)c2ccc(Cl)cc2)cc1` belongs 14 µg/mL (≈ 37 µM); to `C[n+]1cn(Cc2ccc(C#N)cc2)c2ccccc21.[Cl-]`, 39.4 µg/mL; to `FC(F)(F)c1ccccc1CCN1CCNCC1`, 32.9 µg/mL (≈ 127 µM).

Molecule `O=C(O)Cn1c(=O)n(Cc2ccccc2)c2ccccc21` registered a kinetic solubility above 42.3 µg/mL. In the case of `COc1ccc(OCC(O)CN2CCNCC2)cc1.Cl` (stereo not given) it was 49.5 µg/mL; in that of `COc1ccc2c(C)cc(SCC(=O)NC3CCCC3)nc2c1`, 6.6 µg/mL (≈ 20 µM); in that of `O=C(CC(=O)Nc1ccc(F)cc1)Nc1ccc(F)cc1`, 3.1 µg/mL (≈ 10.7 µM). `O=C(Cc1cccs1)N1CCN=C1SCc1cccc(F)c1`: the solubility (kinetic) worked out at 12.6 µg/mL (≈ 37.7 µM). In the case of `O=C(COC(=O)c1ccc2ccccc2c1O)NCc1ccccc1` it was 3 µg/mL (≈ 8.95 µM). In the case of `CN(C)CCCNc1nc(-c2ccccc2)c2c(c1C#N)CC(C)(C)OC2` it was 47.3 µg/mL (≈ 130 µM).
